Target: T1, SHP2 (Homo sapiens, UniProt Q06124)
T1 sequence (Q06124 1-593): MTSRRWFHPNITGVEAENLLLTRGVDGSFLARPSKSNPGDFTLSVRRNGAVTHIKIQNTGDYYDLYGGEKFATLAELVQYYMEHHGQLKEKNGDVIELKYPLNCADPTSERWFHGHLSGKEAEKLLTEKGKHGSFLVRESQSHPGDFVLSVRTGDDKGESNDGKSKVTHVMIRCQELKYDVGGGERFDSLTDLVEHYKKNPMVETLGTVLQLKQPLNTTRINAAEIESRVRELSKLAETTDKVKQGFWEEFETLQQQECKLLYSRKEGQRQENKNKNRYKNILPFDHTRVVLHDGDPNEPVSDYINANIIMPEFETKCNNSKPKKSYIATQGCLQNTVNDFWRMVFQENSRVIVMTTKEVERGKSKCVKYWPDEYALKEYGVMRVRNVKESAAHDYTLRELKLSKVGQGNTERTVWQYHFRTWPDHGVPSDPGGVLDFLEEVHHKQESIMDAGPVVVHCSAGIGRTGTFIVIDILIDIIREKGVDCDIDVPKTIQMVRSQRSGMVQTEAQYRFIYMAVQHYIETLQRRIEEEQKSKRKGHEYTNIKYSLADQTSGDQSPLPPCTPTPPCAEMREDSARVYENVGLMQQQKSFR
Test: SHP2 allosteric inhibitor enzyme activity assay (DiFMUP fluorescence)
Assay type: biochemical
Method in brief: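 SHP2 activated by 0.5 μM IRS1_pY1172(dPEG8)pY1222 peptide, 0.2 ng enzyme per well, 1 h at room temperature with compound (1 μM top, 3-fold series), then DiFMUP substrate 1 h. Buffer: 60 mM HEPES, 75 mM NaCl, 75 mM KCl, 0.05% BRIJ-35, 1 mM EDTA, 5 mM DTT. Fluorescence ex 340/em 450 nm; IC50 by variable-slope fit.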

SMILES: N[C@@H]1c2ccccc2CC12CCN(c1cnc3c(C4(c5ccccc5)CC4)n[nH]c3n1)CC2 [Example 2, (S)-1′-(3-(1-phenylcyclopropyl)-1H-pyrazolo[3,4-b]pyrazin-6-yl)-1,3-dihydrospiro[indene-2,4′-piperidin]-1-amine]
- IC50 (class symbols): ≤ 20 nM

SMILES: Cc1csc(C2(c3n[nH]c4nc(N5CCC6(CC5)CO[C@@H](C)[C@H]6N)[nH]c(=O)c34)CC2)n1 [Example 318, 6-((3S,4S)-4-amino-3-methyl-2-oxa-8-azaspiro[4.5]decan-8-yl)-3-(1-(4-methylthiazol-2-yl)cyclopropyl)-1,5-dihydro-4H-pyrazolo[3,4-d]pyrimidin-4-one]
- IC50 (class symbols): 20 to 60 nM

SMILES: N[C@@H]1c2ccccc2CC12CCN(c1nc3[nH]nc(C4(c5ccnc(NC6CC6)c5)CC4)c3c(=O)[nH]1)CC2 [Example 29, (S)-6-(1-amino-1,3-dihydrospiro[indene-2,4′-piperidin]-1′-yl)-3-(1-(2-(cyclopropylamino)pyridin-4-yl)cyclopropyl)-1,5-dihydro-4H-pyrazolo[3,4-d]pyrimidin-4-one]
- IC50 (class symbols): ≤ 20 nM

SMILES: N[C@@H]1c2ccccc2CC12CCN(c1nc3[nH]nc(C4=CCc5ccccc54)c3c(=O)[nH]1)CC2 [Example 172, (S)-6-(1-amino-1,3-dihydrospiro[indene-2,4′-piperidin]-1′-yl)-3-(1H-inden-3-yl)-1,5-dihydro-4H-pyrazolo[3,4-d]pyrimidin-4-one]
- IC50 (class symbols): ≤ 20 nM

SMILES: COCCOc1cccc(C2(c3n[nH]c4nc(N5CCC6(CC5)Cc5ccccc5[C@H]6N)[nH]c(=O)c34)CC2)c1 [Example 44, (S)-6-(1-amino-1,3-dihydrospiro[indene-2,4′-piperidin]-1′-yl)-3-(1-(3-(2-methoxyethoxy)phenyl)cycloprop-yl)-1,5-dihydro-4H-pyrazolo[3,4-d]pyrimidin-4-one]
- IC50 (class symbols): ≤ 20 nM

SMILES: C[C@@H]1OCC2(CCN(c3nc4[nH]nc(C5(c6ccc7ocnc7c6)CC5)c4c(=O)[nH]3)CC2)[C@@H]1N [Example 287, 6-((3S,4S)-4-amino-3-methyl-2-oxa-8-azaspiro[4.5]decan-8-yl)-3-(1-(benzo[d]oxazol-5-yl)cyclopropyl)-1,5-dihydro-4H-pyrazolo[3,4-d]pyrimidin-4-one]
- IC50 (class symbols): 20 to 60 nM

SMILES: N[C@@H]1c2ccccc2CC12CCN(c1nc3[nH]nc(C4(c5ccccc5F)CC4)c3c(=O)[nH]1)CC2 [Example 220, (S)-6-(1-amino-1,3-dihydrospiro[indene-2,4′-piperidin]-1′-yl)-3-(1-(2-fluorophenyl)cyclopropyl)-1,5-dihydro-4H-pyrazolo[3,4-d]pyrimidin-4-one]
- IC50 (class symbols): ≤ 20 nM

SMILES: C[C@@H]1OCC2(CCN(c3nc4[nH]nc(C5(c6ccc7c(c6)OCO7)CC5)c4c(=O)[nH]3)CC2)[C@@H]1N [Example 286, 6-((3S,4S)-4-amino-3-methyl-2-oxa-8-azaspiro[4.5]decan-8-yl)-3-(1-(benzo[d][1,3]dioxol-5-yl)cyclopropyl)-1,5-dihydro-4H-pyrazolo[3,4-d]pyrimidin-4-one]
- IC50 (class symbols): 20 to 60 nM

SMILES: C[C@@H]1OCC2(CCN(c3nc4[nH]nc(C5(c6ccc(C(F)(F)F)cc6)CC5)c4c(=O)[nH]3)CC2)[C@@H]1N [Example 296, 6-((3S,4S)-4-amino-3-methyl-2-oxa-8-azaspiro[4.5]decan-8-yl)-3-(1-(4-(trifluoromethyl)phenyl)cyclopropyl)-1,5-dihydro-4H-pyrazolo[3,4-d]pyrimidin-4-one]
- IC50 (class symbols): > 60 nM

SMILES: N[C@@H]1c2ccccc2CC12CCN(c1nc3[nH]nc(C4(c5cccc(-c6ccccc6)c5)CC4)c3c(=O)[nH]1)CC2 [Example 63, (S)-3-(1-([1,1′-biphenyl]-3-yl)cyclopropyl)-6-(1-amino-1,3-dihydrospiro[indene-2,4′-piperidin]-1′-yl)-1,5-dihydro-4H-pyrazolo[3,4-d]pyrimidin-4-one]
- IC50 (class symbols): ≤ 20 nM

SMILES: N[C@@H]1c2ccccc2CC12CCN(c1nc3[nH]nc(-c4cc(=O)oc5ccccc45)c3c(=O)[nH]1)CC2 [Example 174, (S)-6-(1-amino-1,3-dihydrospiro[indene-2,4′-piperidin]-1′-yl)-3-(2-oxo-2H-chromen-4-yl)-1,5-dihydro-4H-pyrazolo[3,4-d]pyrimidin-4-one]
- IC50 (class symbols): ≤ 20 nM

SMILES: N[C@@H]1c2ccccc2CC12CCN(c1nc3[nH]nc(C4(c5ccsc5)CC4)c3c(=O)[nH]1)CC2 [Example 236, (S)-6-(1-amino-1,3-dihydrospiro[indene-2,4′-piperidin]-1′-yl)-3-(1-(thiophen-3-yl)cyclopropyl)-l,5-dihydro-4H-pyrazolo[3,4-d]pyrimidin-4-one]
- IC50 (class symbols): ≤ 20 nM

SMILES: Cc1ncccc1C1(c2n[nH]c3nc(N4CCC5(CC4)Cc4ccccc4[C@H]5N)[nH]c(=O)c23)CC1 [Example 89]
- IC50 (class symbols): ≤ 20 nM

SMILES: N[C@@H]1c2ccccc2CC12CCN(c1nc3[nH]nc(C4=CNS(=O)(=O)c5ccccc54)c3c(=O)[nH]1)CC2 [Example 181, (S)-6-(1-amino-1,3-dihydrospiro[indene-2,4′-piperidin]-1′-yl)-3-(1,1-dioxido-2H-benzo[e][1,2]thiazin-4-yl)-1,5-dihydro-4H-pyrazolo[3,4-d]pyrimidin-4-one]
- IC50 (class symbols): ≤ 20 nM

SMILES: CC1(C)C=C(c2n[nH]c3nc(N4CCC5(CC4)Cc4ccccc4[C@H]5N)[nH]c(=O)c23)c2cccnc2C1 [Example 143, (S)-6-(1-amino-1,3-dihydrospiro[indene-2,4′-piperidin]-1′-yl)-3-(7,7-dimethyl-7,8-dihydroquinolin-5-yl)-1,5-dihydro-4H-pyrazolo[3,4-d]pyrimidin-4-one]
- IC50 (class symbols): ≤ 20 nM

SMILES: CC1(C)CC(c2n[nH]c3nc(N4CCC5(CC4)Cc4ccccc4[C@H]5N)[nH]c(=O)c23)c2cccc(F)c21 (stereo partly drawn) [Example 109, 6-((S)-1-amino-1,3-dihydrospiro[indene-2,4′-piperidin]-1′-yl)-3-(4-fluoro-3,3-dimethyl-2,3-dihydro-1H-inden-1-yl)-1,5-dihydro-4H-pyrazolo[3,4-d]pyrimidin-4-one]
- IC50 (class symbols): ≤ 20 nM

SMILES: N[C@@H]1c2ccccc2CC12CCN(c1nc3[nH]nc(C4(c5c[nH]nn5)CC4)c3c(=O)[nH]1)CC2 [Example 253, (S)-3-(1-(1H-1,2,3-triazol-4-yl)cyclopropyl)-6-(1-amino-1,3-dihydrospiro[indene-2,4′-piperidin]-1′-yl)-1,5-dihydro-4H-pyrazolo[3,4-d]pyrimidin-4-one]
- IC50 (class symbols): ≤ 20 nM

SMILES: Cn1ccc2c(C3(c4n[nH]c5nc(N6CCC7(CC6)Cc6ccccc6[C@H]7N)[nH]c(=O)c45)CC3)cccc21 [Example 81, (S)-6-(1-amino-1,3-dihydrospiro[indene-2,4′-piperidin]-1′-yl)-3-(1-(1-methyl-1H-indol-4-yl)cyclopropyl)-1,5-dihydro-4H-pyrazolo[3,4-d]pyrimidin-4-one]
- IC50 (class symbols): ≤ 20 nM

SMILES: N[C@@H]1COCC12CCN(c1nc3[nH]nc(C4(c5nc6ccccc6[nH]5)CC4)c3c(=O)[nH]1)CC2 [Example 283, (S)-3-(1-(1H-benzo[d]imidazol-2-yl)cyclopropyl)-6-(4-amino-2-oxa-8-azaspiro[4.5]decan-8-yl)-1,5-dihydro-4H-pyrazolo[3,4-d]pyrimidin-4-one]
- IC50 (class symbols): > 60 nM

SMILES: C[C@@H]1OCC2(CCN(c3cnc4c(C5(c6ccsc6)CC5)n[nH]c4n3)CC2)[C@@H]1N [Example 268, (3S,4S)-3-methyl-8-(3-(1-(thiophen-3-yl)cyclopropyl)-1H-pyrazolo[3,4-b]pyrazin-6-yl)-2-oxa-8-azaspiro[4.5]decan-4-amine]
- IC50 (class symbols): 20 to 60 nM

SMILES: COc1ccc2c(c1)[C@@H](N)C1(CCN(c3nc4[nH]nc(C5(c6ccccc6)CC5)c4c(=O)[nH]3)CC1)C2 [Example 192, (S)-6-(1-amino-6-methoxy-1,3-dihydrospiro[indene-2,4′-piperidin]-1′-yl)-3-(1-phenylcyclopropyl)-1,5-dihydro-4H-pyrazolo[3,4-d]pyrimidin-4-one]
- IC50 (class symbols): ≤ 20 nM

SMILES: N[C@@H]1c2ccccc2CC12CCN(c1nc3[nH]nc(C4(c5ccnc(NC6CC6)c5Cl)CC4)c3c(=O)[nH]1)CC2 [Example 72, (S)-6-(1-amino-1,3-dihydrospiro[indene-2,4′-piperidin]-1′-yl)-3-(1-(3-chloro-2-(cyclopropylamino)pyridin-4-yl)cyclopropyl)-1,5-dihydro-4H-pyrazolo[3,4-d]pyrimidin-4-one]
- IC50 (class symbols): ≤ 20 nM

SMILES: N[C@@H]1c2ccccc2CC12CCN(c1nc3[nH]nc(C4=CSCc5ccccc54)c3c(=O)[nH]1)CC2 [Example 134, (S)-6-(1-amino-1,3-dihydrospiro[indene-2,4′-piperidin]-1′-yl)-3-(1H-isothiochromen-4-yl)-1,5-dihydro-4H-pyrazolo[3,4-d]pyrimidin-4-one]
- IC50 (numeric values): 1.7 nM

SMILES: N[C@@H]1c2ccccc2CC12CCN(c1nc3[nH]nc(C4=CCCc5sccc54)c3c(=O)[nH]1)CC2 [Example 117, (S)-6-(1-amino-1,3-dihydrospiro[indene-2,4′-piperidin]-1′-yl)-3-(6,7-dihydrobenzo[b]thiophen-4-yl)-1,5-dihydro-4H-pyrazolo[3,4-d]pyrimidin-4-one]
- IC50 (class symbols): ≤ 20 nM

From patent US20230192705A1, “SHP2 INHIBITORS, COMPOSITIONS AND USES THEREOF” (Betta Pharmaceuticals Co., Ltd, priority 2020, published 2023)
